From US20260001893A1, “SMALL MOLECULE MODULATORS OF STAT6” (Gilead Sciences, Inc., priority 2024, published 2026)

Key:
[1] = tested on: Eotaxin-3 (CCL26) release in human whole blood stimulated with IL-4; assay: Human whole blood eotaxin-3 assay (IL-4 stimulated eotaxin-3 release); type: cell-based; conditions: human whole blood stimulated with recombinant human IL-4, 48 h, geometric mean
Outline: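 Eotaxin-3 (CCL26) release was quantified by MSD immunoassay in supernatants of human heparinised whole blood after 48 h at 37° C with IL-4 ([…] final). Compounds, in 4-fold dilutions at 0.5% DMSO, were added 2 h before stimulation.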

[2] = target: T1, Human STAT6 (truncated, aa122-658, with N-terminal His-tag) (Homo sapiens, UniProt P42226); assay: Surface plasmon resonance (SPR) assay, binding to human STAT6; conditions: Biacore 8K, 25° C, immobilized human STAT6 on CM5 chip, multi-cycle kinetics; geometric mean
T1 construct: Human STAT6 (truncated, aa122-658, with N-terminal His-tag, expressed in insect cells); His-tag (N); made in house; host or cells: insect cells
T1 sequence (P42226 122-658): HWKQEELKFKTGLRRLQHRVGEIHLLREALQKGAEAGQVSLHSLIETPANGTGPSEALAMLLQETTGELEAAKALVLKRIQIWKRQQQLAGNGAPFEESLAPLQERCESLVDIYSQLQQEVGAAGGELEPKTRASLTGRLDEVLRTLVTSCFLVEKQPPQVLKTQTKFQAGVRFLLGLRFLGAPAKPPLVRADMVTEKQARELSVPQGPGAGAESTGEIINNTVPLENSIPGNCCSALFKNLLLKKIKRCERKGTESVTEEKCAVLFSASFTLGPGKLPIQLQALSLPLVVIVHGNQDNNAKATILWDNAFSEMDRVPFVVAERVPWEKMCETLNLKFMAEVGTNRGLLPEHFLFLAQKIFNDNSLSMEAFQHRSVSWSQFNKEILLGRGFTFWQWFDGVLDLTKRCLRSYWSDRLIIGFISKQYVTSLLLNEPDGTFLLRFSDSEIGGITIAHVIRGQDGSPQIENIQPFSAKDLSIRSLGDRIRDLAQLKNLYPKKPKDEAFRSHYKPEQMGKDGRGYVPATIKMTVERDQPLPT
Protocol: Surface Plasmon Resonance Assay
Biacore instruments from the 8K-series (Cytiva) were used, and measurements were performed at 25° C. Human STAT6 (truncated, aa122-658, with N-terminal His-tag, expressed in insect cells) was immobilized in the active flow cells on a CM5 chip using amine-coupling (default settings) at 10 μg/ml in 10 mM acetate buffer pH 5.5, at a contact time of 120-420 sec. and a flow rate of 10 μl/min. Reference flow cells were deactivated using blank immobilization. PBS-P+(Cytiva) supplemented with 2% DMSO was used as running buffer, and solvent correction was applied. Compounds were tested by multi-cycle kinetics injections using a contact time of 60 sec., dissociation time of up to 300 sec., and a flow rate of 30 μl/min.
Solvent-corrected, reference-subtracted and blank-corrected data was processed and binding isotherms were fitted according to a single report point from each sensorgram (Standard: Late binding (5 sec. before injection end); alternative: Earlier report point according to binding profile). Data fitting was done both with unfixed Rmax and with Rmax fixed to the theoretical value* assuming 1:1 binding to allow processing of data from both weak and strong binders as well as to evaluate binding stoichiometry.
Positive controls were run at the beginning, during, and at the end of the screen to evaluate surface activity.
*Equation for calculation of the theoretical Rmax(Theoretical Rmax=(MW Analyte/MW Ligand)×immobilization level).

Compound | Kd [2] [nM] | also measured
CNc1ccn(-c2ccnc3c2cc(CN2CC[C@H](c4ccc(C(=O)N(C)C)cc4)[C@@H](F)C2)n3C)c(=O)c1 (single isomer, unassigned) [Example 1f3] | 32.5 | EC50 ([1]; Homo sapiens, 48 h, inhibition of eotaxin-3 release, given for test compounds with >80% Emax): 289 nM
CN(C)C(=O)c1ccc(C2CCN(Cc3cc4c(-n5c(F)c(Cl)c(N)c(Cl)c5=O)ccnc4n3C)CC2)cc1 [Example 1d17, 4-[1-[[4-(4-Amino-3,5-dichloro-2-fluoro-6-oxo-1-pyridyl)-1-methyl-pyrrolo[2,3-b]pyridin-2-yl]methyl]-4-piperidyl]-N,N-methyl-benzamide] | 6620 | –
[2H]C([2H])([2H])N(C(=O)c1ccc(C2CCN(Cc3cc4c(-n5ccc(NC)cc5=O)ccnc4n3C)CC2)c(C)c1)C([2H])([2H])[2H] [Example 1d26, 3-Methyl-4-[1-[[1-methyl-4-[4-(methylamino)-2-oxo-1-pyridyl]pyrrolo[2,3-b]pyridin-2-yl]methyl]-4-piperidyl]-N,N-bis(trideuteriomethyl)benzamide] | 69.7 | –
CNc1ccn(-c2ccnc3c2cc(CN2CCC(c4ccc(C(=O)N(C)C)cc4C(F)(F)F)CC2)n3C)c(=O)c1 [Example 1d38, N,N-Dimethyl-4-[1-[[1-methyl-4-[4-(methylamino)-2-oxo-1-pyridyl]pyrrolo[2,3-b]pyridin-2-yl]methyl]-4-piperidyl]-3-(trifluoromethyl)benzamide] | 570 | –
CNc1ccn(-c2ccnc3c2cc(CN2CCC(F)(c4ccc(C(=O)N(C)C)cc4)CC2)n3C)c(=O)c1 [Example 1f5, 4-[4-Fluoro-1-[[1-methyl-4-[4-(methylamino)-2-oxo-1-pyridyl]pyrrolo-[2,3-b]pyridin-2-yl]methyl]-4-piperidyl]-N,N-dimethyl-benzamide] | 156 | –
CNc1ccn(-c2ccnc3c2cc(CN2CCN(c4ccc(C(=O)N(C)C)cc4)C[C@@H]2C)n3C)c(=O)c1 [Example 1m1, (S)—N,N-dimethyl-4-(3-methyl-4-((1-methyl-4-(4-(methylamino)-2-oxopyridin-1 (2H)-yl)-1H-pyrrolo[2,3-b]pyridin-2-yl)methyl)piperazin-1-yl)benzamide] | 58.6 | –
CNc1ccn(-c2ccnc3c2cc(CN2CCN(c4ccc(C(=O)N(C)C)cc4)C[C@H]2C)n3C)c(=O)c1 [Example 1m2, (R)—N,N-Dimethyl-4-(3-methyl-4-((1-methyl-4-(4-(methylamino)-2-oxopyridin-1 (2H)-yl)-1H-pyrrolo[2,3-b]pyridin-2-yl)methyl)piperazin-1-yl)benzamide] | 188 | –
CNc1ccn(-c2ccnc3c2cc(CN2CCN(c4ccc(C(=O)N(C)C)cc4)CC2)n3C)c(=O)c1 [Example 1m3, N,N-Dimethyl-4-(4-((1-methyl-4-(4-(methylamino)-2-oxopyridin-1 (2H)-yl)-1H-pyrrolo[2,3-b]pyridin-2-yl)methyl)piperazin-1-yl)benzamide] | 244 | –
CNc1ccn(-c2ccnc3c2cc(CN2CCN(c4ccc(C(=O)N(C)C)cn4)CC2)n3C)c(=O)c1 [Example 1m7, N,N-Dimethyl-6-(4-((1-methyl-4-(4-(methylamino)-2-oxopyridin-1 (2H)-yl)-1H-pyrrolo[2,3-b]pyridin-2-yl)methyl)piperazin-1-yl)nicotinamide] | 735 | –
[2H]C([2H])([2H])N(C(=O)c1ccc(N2CCN(Cc3cc4c(-n5ccc(NC)cc5=O)ccnc4n3C)CC2)nc1)C([2H])([2H])[2H] [Example 1m8, N,N-Bis(methyl-d3)-6-(4-((1-methyl-4-(4-(methylamino)-2-oxopyridin-1 (2H)-yl)-1H-pyrrolo[2,3-b]pyridin-2-yl)methyl)piperazin-1-yl)nicotinamide] | 640 | –
CNc1ccn(-c2ccnc3c2cc(CN2CCC(c4ccc(C(=O)N(C)C)cn4)CC2)n3C)c(=O)c1 [Example 1m11, N,N-Dimethyl-6-(1-((1-methyl-4-(4-(methylamino)-2-oxopyridin-1 (2H)-yl)-1H-pyrrolo[2,3-b]pyridin-2-yl)methyl)piperidin-4-yl)nicotinamide] | 113 | –
CNc1ccn(-c2ccnc3c2cc(CN2CC=C(c4ccc(C(=O)N(C)C)cn4)CC2)n3C)c(=O)c1 [Example 1m13, N,N-Dimethyl-1′-((1-methyl-4-(4-(methylamino)-2-oxopyridin-1 (2H)-yl)-1H-pyrrolo[2,3-b]pyridin-2-yl)methyl)-1′, 2′, 3′, 6′-tetrahydro-[2,4′-bipyridine]-5-carboxamide] | 167 | –
CNc1ccn(-c2ccnc3c2cc(CN2CC=C(c4ncc(C(=O)N(C)C)cc4C)CC2)n3C)c(=O)c1 [Example 1m14, N,N,3-Trimethyl-1′-((1-methyl-4-(4-(methylamino)-2-oxopyridin-1 (2H)-yl)-1H-pyrrolo[2,3-b]pyridin-2-yl)methyl)-1′, 2′, 3′, 6′-tetrahydro-[2,4′-bipyridine]-5-carboxamide] | 60.3 | –
CNc1ccn(-c2ccnc3c2cc(CN2CCC(c4ncc(C(=O)N(C)C)cc4C)CC2)n3C)c(=O)c1 [Example 1m15, N,N,5-Trimethyl-6-(1-((1-methyl-4-(4-(methylamino)-2-oxopyridin-1 (2H)-yl)-1H-pyrrolo[2,3-b]pyridin-2-yl)methyl)piperidin-4-yl)nicotinamide] | 572 | –
CNc1ccn(-c2ccnc3c2cc(C(C)N2CCC(c4ccc(C(=O)N(C)C)cc4)CC2)n3C)c(=O)c1 (stereo not shown) [Example 1m71, N,N-dimethyl-4-(1-(1-(1-methyl-4-(4-(methylamino)-2-oxopyridin-1 (2H)-yl)-1H-pyrrolo[2,3-b]pyridin-2-yl)ethyl)piperidin-4-yl)benzamide] | 16.4 | –

Now from value to compound, other results behind:

Kd [2] [nM] | Compound | also measured
61 | CN(C)C(=O)c1ccc(C2CCN(Cc3cc4c(-n5ccc6[nH]nc(C(F)(F)F)c6c5=O)ccnc4n3C)C(=O)C2)cc1 (single isomer, unassigned) [Example 1ab1] | Emax ([1]; Homo sapiens, 48 h, given for test compounds with <80% Emax): 30 to 40%
37.6 | CN(C)C(=O)c1ccc(C2CCN(Cc3cc4c(-n5ccc6[nH]nc(C(F)(F)F)c6c5=O)ccnc4n3C)C(=O)C2)cc1 (single isomer, unassigned) [Example 1ab2] | Eotaxin-3 Emax (%) ([1]; given for test compounds with <80% Emax): 50-60%
112 | CN(C)C(=O)c1ccc(C2CCN(Cc3cc4c(-n5ccc(NC6CC6)cc5=O)ccnc4n3C)CC2)cc1 [Example 1d15, 4-[1-[[4-[4-(cyclo-Propylamino)-2-oxo-1-pyridyl]-1-methyl-pyrrolo[2,3-b]pyridin-2-yl]methyl]-4-piperidyl]-N,N-dimethyl-benzamide] | –
76.4 | CN(C)C(=O)c1ccc(C2CCN(Cc3cc4c(-n5ccc(N)c(C6CC6)c5=O)ccnc4n3C)CC2)cc1 [Example 1d28, 4-[1-[[4-(4-Amino-3-cyclo-propyl-2-oxo-1-pyridyl)-1-methyl-pyrrolo[2,3-b]pyridin-2-yl]methyl]-4-piperidyl]-N,N-dimethyl-benzamide] | –
333 | CN(C)C(=O)c1ccc(C2CC[N+]([O-])(Cc3cc4c(-n5ccc(N)cc5=O)ccnc4n3C)CC2)cc1 (stereo not shown) [Example 1d32, 4-[1-[[4-(4-Amino-2-oxo-1-pyridyl)-1-methyl-pyrrolo[2,3-b]pyridin-2-yl]methyl]-1-oxido-piperidin-1-ium-4-yl]-N,N-dimethyl-benzamide] | –
75.1 | CN(C)C(=O)c1ccc(C2CC[N+]([O-])(Cc3cc4c(-n5ccc6c(c5=O)CCN6)ccnc4n3C)CC2)cc1 (stereo not shown) [Example 1d33, N,N-Dimethyl-4-[1-[[1-methyl-4-(4-oxo-2,3-dihydro-1H-pyrrolo[3,2-c]pyridin-5-yl)pyrrolo[2,3-b]pyridin-2-yl]methyl]-1-oxido-piperidin-1-ium-4-yl]benzamide] | –
25.1 | CN(C)C(=O)c1ccc(C2CCN(Cc3cc4c(-n5ccc6c(c5=O)CCCN6)ccnc4n3C)CC2)cc1 [Example 1d35, N,N-Dimethyl-4-[1-[[1-methyl-4-(5-oxo-1,2,3,4-tetrahydro-1,6-naphthyridin-6-yl)pyrrolo[2,3-b]pyridin-2-yl]methyl]-4-piperidyl]benzamide] | –
